Data taken from the supplement of paper PMC10011410.
± gives the standard deviation of the averaged measurements.

Key:
U-2 OS [1] = assay: total intracellular glutathione (GSH + GSSG) relative to DMSO (% of control); higher = more glutathione; settings: 24 h
How it was run: (§1)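 Luminescence readouts gave total glutathione and GSSG (GSH/GSSG-Glo) or viability (CellTiter-Glo), each on its own plates. Cells (U-2 OS, 750 per well, white low-volume 384-well plates) were dosed by pin tool 24 h after seeding, mostly at 20, 10 and 5 μM in 0.4% DMSO, and kept for 24 h at 37 °C. Results were corrected for background and row/column effects and expressed against vehicle or as a GSH:GSSG ratio. Five replicate plates were used.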

U-2 OS [2] = assay: intracellular GSH:GSSG ratio (calculated); higher = more reduced glutathione pool; settings: 24 h
Description: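 Intracellular glutathione in U-2 OS cells after 24 h compound treatment at 5, 10 and 20 uM (some at 40 and 80 uM). Total glutathione and GSSG were measured with the GSH/GSSG-Glo kit, and the GSH:GSSG ratio was calculated. Mean of five technical replicate plates.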

U-2 OS [3] = assay: AUC of culture confluence over time (live-cell imaging) (AUC (confluence % x time)); higher = more confluent culture (less growth inhibition)
How it was run: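 Each value is the area under a curve of confluence over time for U-2 OS cells. The cells, in F-12K medium with 10% FBS, were plated at 750 per well in 384-well plates and dosed by pin tool 24 h later, most compounds at 20, 10 and 5 μM with 0.2% DMSO. They were held at 37 °C and imaged every 4 h for up to 60 h.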

U-2 OS [4] = assay: relative cell count vs DMSO (cell painting) (fraction of DMSO control); higher = more cells remaining (less cytotoxic); settings: 24 h
How it was run: (§2)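 Cell painting used U-2 OS cells at about 1,500 per well in 384-well plates, treated by pin tool for 24 h at 37 °C, usually at six 2-fold concentrations from 20 μM to 625 nM. Cells were stained with MitoTracker, concanavalin A, phalloidin, wheat germ agglutinin, Hoechst and SYTO 14 and imaged on an Opera Phenix. Features were extracted with CellProfiler and normalized to DMSO cells on the same plate. The activity score is the Mahalanobis distance from DMSO wells; cell count is relative to DMSO wells. Values are means of four replicate plates.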

U-2 OS [5] = assay: cell painting activity score (Mahalanobis distance from DMSO wells); higher = stronger morphological phenotype; settings: 24 h
How it was run: as §2

U-2 OS [6] = assay: cell viability (CellTiter-Glo) relative to DMSO (% of control); higher = more viable; settings: 24 h
How it was run: as §1

SMILES	total intracellular glutathione (U-2 OS [1]; 5 µM)	total intracellular glutathione (U-2 OS [1]; 10 µM)	total intracellular glutathione (U-2 OS [1]; 20 µM)	intracellular GSH:GSSG ratio (U-2 OS [2]; 5 µM)	intracellular GSH:GSSG ratio (U-2 OS [2]; 10 µM)	intracellular GSH:GSSG ratio (U-2 OS [2]; 20 µM)	AUC of culture confluence over time (U-2 OS [3]; 5 µM)	AUC of culture confluence over time (U-2 OS [3]; 10 µM)	AUC of culture confluence over time (U-2 OS [3]; 20 µM)	relative cell count (U-2 OS [4]; 0.625 µM)	relative cell count (U-2 OS [4]; 1.25 µM)	relative cell count (U-2 OS [4]; 2.5 µM)	relative cell count (U-2 OS [4]; 5 µM)	relative cell count (U-2 OS [4]; 10 µM)	relative cell count (U-2 OS [4]; 20 µM)	cell painting activity score (U-2 OS [5]; 0.625 µM)	cell painting activity score (U-2 OS [5]; 1.25 µM)	cell painting activity score (U-2 OS [5]; 2.5 µM)	cell painting activity score (U-2 OS [5]; 5 µM)	cell painting activity score (U-2 OS [5]; 10 µM)	cell painting activity score (U-2 OS [5]; 20 µM)	cell viability (U-2 OS [6]; 5 µM)	cell viability (U-2 OS [6]; 10 µM)	cell viability (U-2 OS [6]; 20 µM)
CCOc1cc2ncc(C#N)c(Nc3ccc(OCc4ccccn4)c(Cl)c3)c2cc1NC(=O)/C=C/CN(C)C	58.3 ± 2.8	61.3 ± 2.5	59.5 ± 3.7	11.7	10.4	8.69	33.1	34.1	21.3	0.995	0.842	0.811	0.76	0.778	0.757	6.66	11.4	14.6	10.9	9.93	13.4	71.7 ± 4.9	71 ± 3.7	73.1 ± 7.3
CC(C)C[C@H](NC(=O)[C@H](Cc1ccccc1)NC(=O)c1cnccn1)B(O)O	6.2 ± 0.76	6.01 ± 0.4	6.63 ± 0.68	2.45	1.97	1.1	16.9	15.6	15.1	0.186	0.172	0.149	0.129	0.131	0.125	28.4	29.8	29.3	30.7	31	29.8	6.79 ± 0.82	7.67 ± 1.1	7.65 ± 1
O=C1C=CC(=O)N1c1ccccc1	114 ± 9.5	23.6 ± 7.2	14.3 ± 6.1	20.1	4.06	17.8	13.1	14.2	13.5	1.02	1.06	0.8	0.602	0.224	0.317	4.85	4.24	9.29	14.7	19.6	16.3	81.7 ± 12	14.3 ± 4.6	4.32 ± 3.1
Nc1nc(-c2ccccc2)ns1	107 ± 7.8	89.3 ± 4	117 ± 7.1	29.7	23.5	27.1	44.7	46.7	45.6	1	0.944	0.943	0.973	1	1.01	3.85	4.11	4.04	3.13	2.93	3.84	104 ± 5.4	104 ± 3	101 ± 6.3
COc1ccc(N(C(=O)CCl)C(C(=O)NCCc2ccccc2)c2cccs2)cc1Cl (configuration not stated)	49.1 ± 4.8	23.5 ± 6.2	2.61 ± 0.21	4.03	5.85	–	15.9	17.6	16.4	0.916	0.7	0.657	0.209	0.198	0.29	9.81	11	11.4	14.4	32.8	32.2	64.5 ± 5.7	36.8 ± 12	8.23 ± 3.5
C=CC(=O)N1CCC[C@@H](n2nc(-c3ccc(Oc4ccccc4)cc3)c3c(N)ncnc32)C1	89.1 ± 3.4	94.8 ± 4.3	85.1 ± 9.8	21.3	20	13.5	37.7	27.5	20.6	1.09	1.02	1.09	1.11	1.03	1.03	5.26	6.98	6.19	8.03	8.01	12.2	87.8 ± 1.4	87.6 ± 4	82 ± 3.9
CC[C@]1(O)C[C@@H]2CN(CCc3c([nH]c4ccccc34)[C@@](C(=O)OC)(c3cc4c(cc3OC)N(C)[C@H]3[C@@](O)(C(=O)OC)[C@H](OC(C)=O)[C@]5(CC)C=CCN6CC[C@]43[C@@H]65)C2)C1	60.6 ± 2.1	61.6 ± 7.3	60.5 ± 3.1	2.94	2.94	2.96	18.2	17.6	20	0.236	0.246	0.221	0.223	0.24	0.255	27.2	24.9	24.9	24.2	24.4	24.4	58.9 ± 5.4	57.8 ± 8.9	57.7 ± 2.6
